According to patent US20260041706A1, “MUCUS MEMBRANE FORMULATIONS AND USES THEREOF” (priority 2022, published 2026):
Where “and” joins values, the source holds several entries; their conditions need not be identical. Identical values can stand only once. Like-named read-outs stand apart in the source and are kept apart here.

Assays:
[1] = for fluorescence intensity (droplet capture) relative to mucus or biopolymer mixture without surfactant: surfactant 0.05% w/V in gellan (0.2% w/v) and pectin (0.75% w/v) mixture
[2] = system: HKx31 Influenza A virus (H3N2); experiment: In vitro neutralization assay with Influenza A (plaque assay in MDCK cells); type: cell-based; conditions: 10 or 60 min incubation; agent evaluated individually
SARS-CoV-2 mNG = experiment: In vitro neutralization assay with SARS-CoV-2 (focus-forming assay in Vero E6 cells); type: cell-based
[3] = system: Escherichia coli (E. coli); experiment: In vitro neutralization assay with bacteria (CFU), E. coli; type: cell-based; conditions: incubation time of 30 min
Experimental: (§1) Neutralization was determined by measuring the bactericidal activity. Each agent was individually incubated with either E. coli or K. pneumoniae for 30 or 60 min, followed by 1-minute centrifugation, and then evaluating the bacterial load in the supernatant using a colony-forming assay.
(§2) An overnight culture of bacteria was prepared in 5 mL tryptic soy broth (TSB, Sigma Aldrich) media. On the day of the experiment, bacteria suspension was adjusted to obtain an OD600 nm=0.2, which corresponds to 10^8 CFU/mL. […] After incubation, the sample/bacteria mixture was 10-fold serially diluted in 1×PBS, and 10 mL of each dilution was plated onto pre-poured LB (Luria Broth, HiMedia Laboratories Pvt Ltd) agar plates followed by an incubation of 16-18 h at 37° C., 5% CO2. The plates were then counted for CFUs.

[4] = mouse, in vivo
Text: (§3) To test our hypothesis, we compared nasal residence time of DiR-loaded mixture of gellan and pectin without or with surfactants.
(§4) In vivo biodistribution and nasal residence. Nasal residence time of the formulation was determine in mice. […] Mice were euthanized at different time points and nasal cavity was harvested and imaged using IVIS (Bruker's In-Vivo Xtreme optical and x-ray in vivo imaging system) at an excitation and emission wavelength of 680/700 nm. Vital organs such as lung, liver, spleen, kidney, and heart, were also imaged at 2 and 24 h time points. To determine the mechanism of long residence time, animals were intranasally instilled with DiR-mixed gellan (0.02% w/v) and pectin (0.75% w/v) mixture without or with BKC and tween-80. After 8 h, animals were euthanized to harvest and image the nasal cavity using Perkin Elmer IVIS Lumina II and the total flux was expressed in (p/sec/m^2/sr).

Klebsiella pneumoniae = experiment: In vitro neutralization assay with bacteria (CFU), K. pneumoniae; type: cell-based; conditions: incubation time of 30 min
Experimental: as §1, §2

RPMI 2650 cells = conditions: 0.5% w/v; 24 or 48 h incubation
[5] = In vivo biodistribution and nasal residence (DiR fluorescence, IVIS); conditions: 8 h post-nasal administration, DiR-loaded
Text: as §3, §4

[6] = system: human nasal epithelial cell (RPMI-2650)-based monolayer

Row | Substance | capture of respiratory droplets (in words) ([1]; BKC at 0.01% w/v) | fluorescence intensity (droplet capture) relative to mucus or biopolymer mixture without surfactant [1] [fold] | surfactant concentration above which fluorescence intensity (droplet capture) increased significantly ([1]; surfactant combined with gellan/pectin mixture, vs mucus or only biopolymer mixture) | reduction in IAV viral titer in host cells in comparison to PBS [2] [log fold] | minimum concentration required to achieve >4-log fold (>99.99%) reduction in SARS-CoV-2 viral load (SARS-CoV-2 mNG) [% w/v] | reduction in SARS-CoV-2 viral load in host cells (SARS-CoV-2 mNG; 10 or 60 min incubation, agent evaluated individually) | neutralization efficiency of BKC against SARS-CoV-2 in presence of gellan or pectin (SARS-CoV-2 mNG; BKC 0.01% w/v, gellan 0.2% w/v or pectin 0.75% w/v, 10 min) | reduction in colony-forming units (CFU) of E. coli [3] [log fold] | nasal residence of gellan and pectin mixture on addition of surfactant [4] | reduction in colony-forming units (CFU) of Klebsiella pneumoniae (Klebsiella pneumoniae) [log fold] | metabolic activity of RPMI-2650 cells (RPMI 2650 cells) | nasal residence of gellan and pectin mixture on addition of surfactant [5] | transient dip in TEER immediately after addition ([6]; irrespective of the concentrations evaluated) | time for TEER to reverse to original value after replacing with fresh medium ([6]; medium replaced at 4 h) | change in TEER (in words) ([6]; Triton-X 0.1% w/v, negative control)
1 | benzalkonium chloride [BKC] | didn't increase the capture of respiratory droplets | 4 | higher than 0.01 % w/v | 1 | 0.01 | 5 log fold and > 99.99% | not impacted | 4 | significantly enhanced the nasal residence | 7 | – | – | – | – | –
2 | polyoxyethylene 20 sorbitan monooleate [Tween-80] | – | 4 | – | 1 | – | – | – | – | – | – | significant reduction in the metabolic activity | significantly enhanced the nasal residence | less than 15% | less than 1 h | –
3 | Triton X-100 [Triton-X, reference compound] | – | – | – | – | – | – | – | – | – | – | – | – | – | – | permanent change in the TEER
